# According to article PMC11940194, “Synthesis, Antiproliferative Activity, and ADME Profiling of Novel Racemic and Optically Pure Aryl-Substituted Purines and Purine Bioisosteres” (Biomolecules, 2025):
# Key:
# [1] = test system: normal skin fibroblasts (HFF-1); assay: Cytotoxicity MTT assay, normal skin fibroblasts; format: cell-based, human; conditions: Homo sapiens, HFF-1, 72 h, 72 h incubation, mean ± SD
# In short: (§1)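 Seeding density followed doubling time: 3000 cells per well for the cancer lines, 5000 for normal fibroblasts. Test substances, freshly diluted from 0.01 to 100 µM, were incubated with the cells for 72 h before MTT measurement of growth rate. IC50 values came from linear regression of dose–response curves.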
# [2] = test system: pancreatic ductal adenocarcinoma (CFPAC-1) cells; assay: Antiproliferative MTT assay, CFPAC-1; format: cell-based, human; conditions: for IC50: Homo sapiens, CFPAC-1, 72 h, 72 h incubation, MTT, mean ± SD; for SI (CFPAC-1): SI = [IC50 HFF]/[IC50 CFPAC-1]
# In short: as §1
# [3] = Metabolic stability in mouse liver microsomes; format: in vitro ADME; conditions: for Clearance Class.: mouse liver microsomes; for Clearance Values (CL): predicted in vivo hepatic clearance from mouse liver microsome t1/2, 1 µM compound
# Text: Mouse liver microsomes were obtained from Corning Life Sciences (Corning, NY, USA). DMSO, nicotinamide adenine dinucleotide phosphate (NADP), glucose-6-phosphate, glucose-6-phosphate dehydrogenase, magnesium chloride, propranolol, caffeine, diclofenac, and phosphate-buffered saline (PBS) were purchased from Sigma (St. Louis, MO, USA). Acetonitrile (ACN) and methanol (MeOH) were obtained from Merck (Darmstadt, Germany). Testosterone was purchased from Steraloids (Newport, RI, USA). Metabolic stability was assessed in mouse liver microsomes. Compounds (final concentration of 1 µM, 0.03% DMSO v/v) were incubated in duplicate in phosphate buffer (50 mM, pH 7.4) at 37 °C together with mouse liver microsomes in the absence and presence of the NADPH cofactor (0.5 mM nicotinamide adenine dinucleotide phosphate, 5 mM glucose-6-phosphate, 1.5 U/mL glucose-6-phosphate dehydrogenase, and 0.5 mM magnesium chloride). Incubation and sampling were performed on a Freedom EVO 200 (Tecan, Männedorf, CH, Switzerland) at […], 10, 20, 30, 45, and 60 min. The reaction was quenched using 3 volumes of a mixture of ACN/MeOH (2:1) containing internal standard (diclofenac), centrifuged, and the supernatants were analyzed using LC-MS/MS. The metabolic activity of the microsomes was verified via simultaneous analysis of several controls including testosterone, propranolol, and caffeine. The in vitro half-life (t1/2) was calculated using GraphPad Prism (v9.0 software) non-linear regression of % of parent compound remaining versus time. In vitro clearance, expressed as µL/min/mg, was estimated from the in vitro half-life (t1/2) and normalized for the protein amount in the incubation mixture, assuming 52.5 mg of protein per gram of liver and using constant values for mouse liver weight/body weight [87.5 g/kg] and mouse liver blood flow (LBF) [131 mL/min/kg].
# (§2) All samples were quantified using tandem mass spectrometry coupled to liquid chromatography. Samples were analyzed on a Sciex API4000 Triple Quadrupole Mass Spectrometer (Sciex, Division of MDS Inc., Toronto, Canada) coupled to a Shimadzu Nexera X2 UHPLC frontend (Kyoto, Japan). Samples were injected onto a UHPLC column (HALO2 C18, 2.1 × 20 mm, 2 µm or Luna Omega 1.6 µm Polar C18 100A, 30 × 2.1 mm) and eluted with a gradient at 50 °C. The mobile phase was composed of acetonitrile/water mixture (9/1, with 0.1% formic acid) and 0.1% formic acid in deionized water. The flow rate was 0.7 mL/min under gradient conditions, leading to a total run time of 1.5–2 min. A positive ion mode with turbo spray, an ion source temperature of 550 °C, and a dwell time of 150 ms were utilized for mass spectrometric detection. Quantitation was performed using multiple reaction monitoring (MRM) at the specific transitions for each compound.
# [4] = test system: MDCKII-MDR1 cells (P-glycoprotein); assay: MDCKII-MDR1 permeability assay; format: in vitro ADME, canine cells with over-expressed human MDR1 gene; conditions: for Permeability: permeability class
# Description: (§3) MDCKII-hMDR1 cells were obtained from Solvo Biotechnology, Hungary. DMEM, fetal bovine serum, Glutamax-100, Antibiotic/Antimycotic, DMSO, Dulbecco’s phosphate-buffered saline, and MEM Non-essential amino acids were purchased from Sigma (St. Louis, MO, USA). Bi-directional permeability and P-glycoprotein substrate assessments were carried out in Madin-Darby canine epithelial cells with the over-expressed human MDR1 gene (MDCKII-MDR1), coding for P-glycoprotein. Experimental procedures, as well as cell culture conditions, were the same as previously described. Briefly, compounds (10 µM, 1% DMSO v/v) in duplicate were incubated at 37 °C for 60 min with cell monolayer on 24-well Millicell inserts (Millipore, Burlington, MA, USA) with and without the P-glycoprotein inhibitor Elacridar (2 µM, International Laboratory, San Francisco, CA, USA). The inhibition of P-glycoprotein was verified by amprenavir (Moravek Biochemicals Inc, Brea, CA, USA) and monolayer integrity using Lucifer yellow (Sigma, St. Louis, MO, USA). LC-MS/MS measured compound concentrations and Lucifer yellow was measured on an Infinite F500 (Tecan, Männedorf, CH, Switzerland) using excitation of 485 nm and emission of 530 nm.
# as §2
# [5] = test system: P-glycoprotein (human MDR1); assay: MDCKII-MDR1 permeability assay; format: in vitro ADME, canine cells with over-expressed human MDR1 gene; conditions: dog, MDCK-MDR1; for Papp A→B at 60 min, 10 µM / Papp B→A at 60 min, 10 µM: 37 °C; for efflux ratio at 60 min, 10 µM: <2 no efflux, >2 active efflux; for Papp at 60 min, 10 µM: permeability class
# Description: as §3, §2
# [6] = test system: colorectal carcinoma (HT-29) cells; assay: Antiproliferative MTT assay, HT-29; format: cell-based, human; conditions: for IC50: Homo sapiens, HT-29, 72 h, 72 h incubation, MTT, mean ± SD; for SI (HT-29): SI = [IC50 HFF]/[IC50 HT-29]
# In short: as §1
# [7] = test system: hepatocellular carcinoma (HepG2) cells; assay: Antiproliferative MTT assay, HepG2; format: cell-based, human; conditions: for IC50: Homo sapiens, HepG2, 72 h, 72 h incubation, MTT, mean ± SD; for SI (HepG2): SI = [IC50 HFF]/[IC50 HepG2]
# In short: as §1
# [8] = test system: breast adenocarcinoma (MCF7) cells; assay: Antiproliferative MTT assay, MCF-7; format: cell-based, human; conditions: for IC50: Homo sapiens, MCF7, 72 h incubation, MTT, mean ± SD
# In short: as §1
SMILES,IC50 [1] [µM],IC50 [2] [µM],SI (CFPAC-1) [2],Clearance Class. [3],Clearance Values (CL) [3] [%],Permeability [4],"Papp A→B at 60 min, 10 µM [5] [nm/s]","Papp B→A at 60 min, 10 µM [5] [nm/s]","efflux ratio at 60 min, 10 µM [5]",IC50 [6] [µM],IC50 [7] [µM],IC50 [8] [µM],"Papp at 60 min, 10 µM [5] [nm/s]",SI (HT-29) [6],SI (HepG2) [7],"Efflux Ratio ([4]; <2 no efflux, >2 active efflux)",SI (MCF-7) ([8]; SI = [IC50 HFF]/[IC50 MCF-7])
"OCC(c1ccc(Br)cc1)n1cc(Cn2ccc3ccccc32)nn1 (stereo not drawn) [Compound 29a, 1-((1-(2-Hydroxy-1-(4-bromophenyl)ethyl)-1H-1,2,3-triazol-4-yl)methyl)-1H-indole]",> 100,39 ± 2.8,>2.6,MODERATE (30–70% moderate),43,HIGH,100,255,2.6,34 ± 0.3,29 ± 0.8,24 ± 1,–,–,–,–,–
"OC(Cn1cc(Cn2ccc3ccccc32)nn1)c1ccc(Br)cc1 (stereo not drawn) [Compound 29b, 1-((1-(2-Hydroxy-2-(4-bromophenyl)ethyl)-1H-1,2,3-triazol-4-yl)methyl)-1H-indol]",25 ± 4.1,43 ± 9.1,0.6,–,92,highest permeability and HIGH,183,286,1.7,36 ± 1.4,35 ± 1.8,29 ± 14,–,–,–,–,–
"OCC(c1ccc(Br)cc1)n1cc(Cn2cnc3ccccc32)nn1 (stereo not drawn) [Compound 34a, 1-((1-(2-Hydroxy-1-(4-bromophenyl)ethyl)-1H-1,2,3-triazol-4-yl)methyl)-1H-benzimidazole]",42 ± 8.3,15 ± 8.9,2.8,LOW (<30% low),–,–,≤ 20,657,32.8,39 ± 4.3,35 ± 14.2,22 ± 5.1,≤ 20,–,–,–,–
"OC(Cn1cc(Cn2cnc3ccccc32)nn1)c1ccc(Br)cc1 (stereo not drawn) [Compound 34b, 1-((1-(2-Hydroxy-2-(4-bromophenyl)ethyl)-1H-1,2,3-triazol-4-yl)methyl)-1H-benzimidazole]",32 ± 14.1,8 ± 3.2,4.0,MODERATE (30–70% moderate),48,MODERATE,43,694,17.2,70 ± 14.5,64 ± 19.5,39 ± 10.1,–,–,–,–,–
"OC(Cn1cc(Cn2cnc3c(Cl)ncnc32)nn1)c1ccc(Br)cc1 (stereo not drawn) [Compound 39b, 6-Chloro-9-((1-(2-hydroxy-2-(4-bromophenyl)ethyl)-1H-1,2,3-triazol-4-yl)methyl)-9H-purine]",30 ± 2.7,15 ± 1,–,–,–,MODERATE,31,696,22.5,50 ± 0.6,44 ± 8.1,21 ± 14,–,0.6,0.7,–,–
"OC(Cn1cc(Cn2cnc3c(Cl)ncnc32)nn1)c1ccc(C(F)(F)F)cc1 (stereo not drawn) [Compound 40b, 6-Chloro-9-((1-(2-hydroxy-2-(4-(trifluoromethyl)phenyl)ethyl)-1H-1,2,3-triazol-4-yl)methyl)-9H-purine]",8 ± 4.8,25 ± 6.4,–,low clearance,–,–,–,–,–,14 ± 8.1,15 ± 9,28 ± 6.7,–,0.6,0.5,higher efflux values,–
"OCC(c1ccc(Br)cc1)n1cc(Cn2ccc3c(Cl)ncnc32)nn1 (stereo not drawn) [Compound 44a, 4-Chloro-7-((1-(2-hydroxy-1-(4-bromophenyl)ethyl)-1H-1,2,3-triazol-4-yl)methyl)-7H-pyrrolo[2,3-d]pyrimidine]",79 ± 17.6,69 ± 2,1.1,MODERATE (30–70% moderate),56,HIGH,109,674,6.2,87 ± 9.9,83 ± 28.3,79 ± 17.6,–,–,–,–,1.0
"OCC(c1ccc(Br)cc1)n1cc(Cn2cnc3c(Cl)nccc32)nn1 (stereo not drawn) [Compound 49a, 4-Chloro-1-((1-(2-hydroxy-1-(4-bromophenyl)ethyl)-1H-1,2,3-triazol-4-yl)methyl)-1H-imidazo[4,5-c]pyridine]",90 ± 4.04,77 ± 0.5,–,LOW (<30% low),–,–,≤ 20,411,41.4,77 ± 1.1,66 ± 22.8,77 ± 3,≤ 20,–,1.4,–,–
